The target of data set [1] is T1, Histone-arginine methyltransferase CARM1 (Homo sapiens, UniProt Q86X55).
T1 sequence (Q86X55 whole entry): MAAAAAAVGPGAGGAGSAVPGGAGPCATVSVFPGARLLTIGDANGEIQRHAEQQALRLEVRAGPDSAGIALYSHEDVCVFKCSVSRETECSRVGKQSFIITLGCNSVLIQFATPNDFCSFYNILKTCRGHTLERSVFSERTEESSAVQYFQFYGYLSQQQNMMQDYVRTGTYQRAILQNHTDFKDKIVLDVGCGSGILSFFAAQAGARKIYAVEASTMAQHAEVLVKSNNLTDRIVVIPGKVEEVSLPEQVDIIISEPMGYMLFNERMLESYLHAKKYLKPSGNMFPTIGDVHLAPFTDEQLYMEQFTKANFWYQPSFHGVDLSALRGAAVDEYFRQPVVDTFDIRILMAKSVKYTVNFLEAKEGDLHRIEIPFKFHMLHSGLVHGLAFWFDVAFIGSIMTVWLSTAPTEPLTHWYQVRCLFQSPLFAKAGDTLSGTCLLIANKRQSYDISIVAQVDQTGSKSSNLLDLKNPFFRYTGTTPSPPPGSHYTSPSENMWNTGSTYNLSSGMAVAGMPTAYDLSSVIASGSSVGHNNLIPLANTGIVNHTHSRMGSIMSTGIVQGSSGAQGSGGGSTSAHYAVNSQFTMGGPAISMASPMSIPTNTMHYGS
Put plainly: Inhibition of PRMT4 (unknown origin) using histone H4 (1 to 21 residues) peptide/SAM as substrate incubated for 210 mins in presence of SAM by AlphaLISA assay. (In general: Bead proximity is the source of the signal in Alpha formats.)

The nature of data set [2]: Toxicity in BALB/c mouse xenografted with human A375 cells assessed as change in body weight at 75 mg/kg, po qd for 19 days and measured every 3 days. Format: organism-based, A-375. The following applies: in vivo, 456 h, time 19 day.
The target of data set [3] is Histone-lysine N-methyltransferase 2B (Homo sapiens, UniProt Q9UMN6). Put plainly: Inhibition of MLL4 (unknown origin) using peptide substrate preincubated for 10 mins followed by substrate addition for 4 hrs by HTRF assay. On the technique in general: In TR-FRET formats the signal depends on donor and acceptor labels being close together.
Chain of Histone-lysine N-methyltransferase 2B (Q9UMN6 whole entry): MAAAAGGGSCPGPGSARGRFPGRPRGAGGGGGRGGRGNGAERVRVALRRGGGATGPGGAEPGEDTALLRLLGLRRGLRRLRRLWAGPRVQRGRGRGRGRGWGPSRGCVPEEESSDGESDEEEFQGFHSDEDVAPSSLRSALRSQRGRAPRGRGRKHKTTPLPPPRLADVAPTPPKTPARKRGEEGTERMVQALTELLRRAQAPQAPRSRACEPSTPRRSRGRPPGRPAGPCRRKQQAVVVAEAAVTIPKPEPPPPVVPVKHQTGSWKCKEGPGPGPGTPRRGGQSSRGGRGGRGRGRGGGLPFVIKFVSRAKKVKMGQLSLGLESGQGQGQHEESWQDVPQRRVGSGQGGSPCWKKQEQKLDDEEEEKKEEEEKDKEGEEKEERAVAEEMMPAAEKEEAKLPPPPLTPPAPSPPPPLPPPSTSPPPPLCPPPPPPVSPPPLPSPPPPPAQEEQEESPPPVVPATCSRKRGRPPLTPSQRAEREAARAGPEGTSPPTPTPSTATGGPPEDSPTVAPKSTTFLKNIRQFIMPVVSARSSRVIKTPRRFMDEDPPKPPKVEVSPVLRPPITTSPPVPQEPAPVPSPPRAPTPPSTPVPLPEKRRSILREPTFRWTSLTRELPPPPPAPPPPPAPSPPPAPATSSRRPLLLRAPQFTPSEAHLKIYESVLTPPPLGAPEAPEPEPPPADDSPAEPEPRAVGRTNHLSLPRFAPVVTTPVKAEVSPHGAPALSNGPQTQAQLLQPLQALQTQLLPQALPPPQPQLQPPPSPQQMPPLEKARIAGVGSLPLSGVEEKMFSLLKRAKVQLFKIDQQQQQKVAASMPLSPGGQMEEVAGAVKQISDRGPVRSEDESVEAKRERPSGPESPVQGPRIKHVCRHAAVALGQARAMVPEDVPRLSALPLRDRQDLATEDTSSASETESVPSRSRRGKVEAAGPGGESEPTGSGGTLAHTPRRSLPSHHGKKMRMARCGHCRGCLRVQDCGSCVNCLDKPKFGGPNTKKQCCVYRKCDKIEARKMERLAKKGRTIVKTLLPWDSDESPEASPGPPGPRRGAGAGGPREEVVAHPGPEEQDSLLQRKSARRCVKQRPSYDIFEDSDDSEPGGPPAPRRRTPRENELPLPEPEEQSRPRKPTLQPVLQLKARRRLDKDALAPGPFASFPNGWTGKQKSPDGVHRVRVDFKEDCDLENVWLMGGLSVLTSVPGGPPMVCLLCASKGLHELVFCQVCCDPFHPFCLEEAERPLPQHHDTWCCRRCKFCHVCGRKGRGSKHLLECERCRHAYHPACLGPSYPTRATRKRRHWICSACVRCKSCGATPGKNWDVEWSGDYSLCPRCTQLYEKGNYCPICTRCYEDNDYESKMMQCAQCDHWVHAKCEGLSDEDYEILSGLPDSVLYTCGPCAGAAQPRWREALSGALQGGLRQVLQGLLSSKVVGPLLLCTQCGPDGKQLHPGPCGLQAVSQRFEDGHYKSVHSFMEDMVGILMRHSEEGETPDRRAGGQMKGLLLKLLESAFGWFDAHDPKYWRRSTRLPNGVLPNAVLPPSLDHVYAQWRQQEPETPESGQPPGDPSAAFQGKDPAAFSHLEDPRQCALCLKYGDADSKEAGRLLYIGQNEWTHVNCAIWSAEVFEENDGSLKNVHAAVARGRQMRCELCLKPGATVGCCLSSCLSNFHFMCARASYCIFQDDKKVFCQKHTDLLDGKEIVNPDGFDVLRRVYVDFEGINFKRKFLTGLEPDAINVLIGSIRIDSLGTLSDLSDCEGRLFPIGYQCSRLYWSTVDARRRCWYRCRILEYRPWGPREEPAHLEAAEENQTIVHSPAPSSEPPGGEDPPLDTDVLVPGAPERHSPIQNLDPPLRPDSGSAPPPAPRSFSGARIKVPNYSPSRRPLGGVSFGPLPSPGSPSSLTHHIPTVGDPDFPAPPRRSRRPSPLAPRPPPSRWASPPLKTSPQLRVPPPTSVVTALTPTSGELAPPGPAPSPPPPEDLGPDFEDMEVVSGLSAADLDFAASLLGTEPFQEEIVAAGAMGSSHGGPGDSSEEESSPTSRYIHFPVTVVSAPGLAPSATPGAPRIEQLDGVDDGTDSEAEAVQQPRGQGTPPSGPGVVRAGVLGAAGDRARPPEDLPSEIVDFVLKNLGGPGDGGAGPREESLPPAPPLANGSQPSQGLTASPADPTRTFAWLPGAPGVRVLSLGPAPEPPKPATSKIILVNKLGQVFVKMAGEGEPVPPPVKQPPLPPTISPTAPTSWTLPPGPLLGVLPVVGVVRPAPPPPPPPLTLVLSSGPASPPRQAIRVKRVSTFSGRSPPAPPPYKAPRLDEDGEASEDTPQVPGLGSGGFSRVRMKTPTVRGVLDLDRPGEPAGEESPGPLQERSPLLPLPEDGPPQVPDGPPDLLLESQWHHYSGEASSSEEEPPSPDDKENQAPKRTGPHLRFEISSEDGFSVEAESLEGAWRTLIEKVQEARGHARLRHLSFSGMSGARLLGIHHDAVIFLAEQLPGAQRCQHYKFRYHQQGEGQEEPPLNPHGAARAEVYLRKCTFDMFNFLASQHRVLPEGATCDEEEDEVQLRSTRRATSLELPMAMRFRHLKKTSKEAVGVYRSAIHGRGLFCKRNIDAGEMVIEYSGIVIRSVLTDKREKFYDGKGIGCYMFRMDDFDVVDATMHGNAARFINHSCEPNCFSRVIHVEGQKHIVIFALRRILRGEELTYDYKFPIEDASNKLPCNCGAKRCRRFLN
Data set [4] can be described thus: Volume of distribution at steady state in Sprague-Dawley rat at 3 mg/kg, iv measured for 0.25 to 24 hrs by LC-MS/MS analysis. It is filed as ADME, organism-based. To be noted: in vivo, time 0.25-24 hrs, read-out: Vdss.
Data set [5] concerns the target T2, Histone-lysine N-methyltransferase NSD2 (Homo sapiens, UniProt O96028).
T2 sequence (O96028 whole entry): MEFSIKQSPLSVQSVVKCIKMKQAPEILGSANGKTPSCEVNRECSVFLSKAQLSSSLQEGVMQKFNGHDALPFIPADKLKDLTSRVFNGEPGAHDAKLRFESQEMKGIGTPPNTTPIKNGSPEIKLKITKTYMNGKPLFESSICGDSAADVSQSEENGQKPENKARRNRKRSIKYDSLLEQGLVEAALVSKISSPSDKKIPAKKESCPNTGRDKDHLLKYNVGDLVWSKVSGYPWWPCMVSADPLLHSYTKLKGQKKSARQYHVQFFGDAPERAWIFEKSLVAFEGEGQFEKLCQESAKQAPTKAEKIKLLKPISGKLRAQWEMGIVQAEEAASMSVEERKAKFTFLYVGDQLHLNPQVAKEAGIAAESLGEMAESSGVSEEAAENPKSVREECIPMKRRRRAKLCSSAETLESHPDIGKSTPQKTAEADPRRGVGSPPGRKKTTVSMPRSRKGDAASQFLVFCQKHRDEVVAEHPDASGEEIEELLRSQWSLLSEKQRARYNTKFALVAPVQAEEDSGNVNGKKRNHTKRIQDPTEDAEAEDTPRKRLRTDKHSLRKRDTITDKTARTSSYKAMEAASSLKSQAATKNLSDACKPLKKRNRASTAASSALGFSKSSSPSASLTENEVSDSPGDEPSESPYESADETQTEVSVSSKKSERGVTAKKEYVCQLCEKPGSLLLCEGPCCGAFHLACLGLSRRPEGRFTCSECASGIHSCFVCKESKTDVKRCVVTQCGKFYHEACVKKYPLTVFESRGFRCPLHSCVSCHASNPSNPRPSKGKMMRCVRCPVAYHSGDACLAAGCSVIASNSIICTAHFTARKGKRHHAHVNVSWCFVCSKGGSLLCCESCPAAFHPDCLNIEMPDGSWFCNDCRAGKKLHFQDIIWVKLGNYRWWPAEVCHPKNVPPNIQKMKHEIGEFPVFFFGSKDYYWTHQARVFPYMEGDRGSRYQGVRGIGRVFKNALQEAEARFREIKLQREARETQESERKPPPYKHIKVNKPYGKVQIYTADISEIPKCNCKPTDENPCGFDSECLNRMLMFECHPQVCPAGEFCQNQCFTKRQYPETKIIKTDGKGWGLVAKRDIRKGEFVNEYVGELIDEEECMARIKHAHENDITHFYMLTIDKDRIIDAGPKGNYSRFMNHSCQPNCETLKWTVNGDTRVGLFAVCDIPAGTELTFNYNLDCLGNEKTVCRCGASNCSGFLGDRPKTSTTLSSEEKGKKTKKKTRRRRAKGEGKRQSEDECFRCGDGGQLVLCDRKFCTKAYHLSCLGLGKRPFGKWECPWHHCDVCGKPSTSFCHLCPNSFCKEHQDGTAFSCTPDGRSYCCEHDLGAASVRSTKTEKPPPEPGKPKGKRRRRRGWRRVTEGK
Put plainly: Inhibition of NSD2 (unknown origin) using histone H4 (1 to 21 residues) peptide/SAM as substrate incubated for 210 mins in presence of SAM by AlphaLISA assay.

A short description of data set [6]: Half life in Sprague-Dawley rat at 3 mg/kg, iv measured for 0.25 to 24 hrs by LC-MS/MS analysis. It is filed as ADME, organism-based. To be noted: in vivo, time 0.25-24 hrs.
Data set [7] has as its system A-375. Description: Induction of apoptosis in human A-375 cells assessed as total apoptotic cells at 4 uM incubated for 48 hrs by Annexin-V FITC/PI staining based flow cytometry analysis relative to control. It is filed as functional. On the technique in general: Flow cytometry measures light scatter and fluorescence of single cells or particles in a stream.
Data set [8] can be described thus: Oral bioavailability in Sprague-Dawley rat at 10 mg/kg, measured for 0.25 to 24 hrs by LC-MS/MS analysis. It is filed as ADME, organism-based. The following applies: in vivo, time 0.25-24 hrs.
Data set [9] in a line: AUC (0 to infinity) in Sprague-Dawley rat at 3 mg/kg, iv measured for 0.25 to 24 hrs by LC-MS/MS analysis. It is filed as ADME, organism-based. Also on record: time 0.25-24 hrs, dose 3 mg/kg, route iv. The following applies: in vivo.
The target in data set [10] is Protein arginine N-methyltransferase 5 (Homo sapiens, UniProt O14744). Put plainly: Displacement of [3H]-SAM from PRMT5 (unknown origin) using peptide substrate preincubated for 15 mins followed by substrate addition for 60 mins by radioactive biochemical assay.
Chain of Protein arginine N-methyltransferase 5 (O14744 whole entry): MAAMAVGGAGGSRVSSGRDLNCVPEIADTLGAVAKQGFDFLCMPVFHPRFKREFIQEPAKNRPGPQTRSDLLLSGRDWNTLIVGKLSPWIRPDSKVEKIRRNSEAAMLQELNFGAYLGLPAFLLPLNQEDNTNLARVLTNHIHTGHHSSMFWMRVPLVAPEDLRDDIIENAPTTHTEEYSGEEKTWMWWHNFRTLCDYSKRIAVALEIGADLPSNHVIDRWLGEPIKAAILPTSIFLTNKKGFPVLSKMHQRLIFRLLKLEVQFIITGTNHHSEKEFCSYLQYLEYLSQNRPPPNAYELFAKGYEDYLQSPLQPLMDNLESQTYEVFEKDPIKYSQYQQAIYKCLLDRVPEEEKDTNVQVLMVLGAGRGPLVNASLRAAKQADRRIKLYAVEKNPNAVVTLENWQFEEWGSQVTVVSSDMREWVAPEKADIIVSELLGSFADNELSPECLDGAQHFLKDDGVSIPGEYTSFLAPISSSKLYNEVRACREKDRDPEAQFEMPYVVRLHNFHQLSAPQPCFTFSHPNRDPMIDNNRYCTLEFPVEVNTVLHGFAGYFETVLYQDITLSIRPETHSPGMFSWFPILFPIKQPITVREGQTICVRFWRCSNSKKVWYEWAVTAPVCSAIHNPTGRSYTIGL
In data set [11] the test system is A-375. Put plainly: Induction of apoptosis in human A-375 cells assessed as total apoptotic cells at 2 uM incubated for 48 hrs by Annexin-V FITC/PI staining based flow cytometry analysis relative to control. Format: functional.
The target in data set [12] is Histone-lysine N-methyltransferase EZH2 (Homo sapiens, UniProt Q15910). Description: Inhibition of EZH2 (unknown origin) using peptide substrate preincubated for 10 mins followed by substrate addition for 4 hrs by HTRF assay.
Chain of Histone-lysine N-methyltransferase EZH2 (Q15910 whole entry): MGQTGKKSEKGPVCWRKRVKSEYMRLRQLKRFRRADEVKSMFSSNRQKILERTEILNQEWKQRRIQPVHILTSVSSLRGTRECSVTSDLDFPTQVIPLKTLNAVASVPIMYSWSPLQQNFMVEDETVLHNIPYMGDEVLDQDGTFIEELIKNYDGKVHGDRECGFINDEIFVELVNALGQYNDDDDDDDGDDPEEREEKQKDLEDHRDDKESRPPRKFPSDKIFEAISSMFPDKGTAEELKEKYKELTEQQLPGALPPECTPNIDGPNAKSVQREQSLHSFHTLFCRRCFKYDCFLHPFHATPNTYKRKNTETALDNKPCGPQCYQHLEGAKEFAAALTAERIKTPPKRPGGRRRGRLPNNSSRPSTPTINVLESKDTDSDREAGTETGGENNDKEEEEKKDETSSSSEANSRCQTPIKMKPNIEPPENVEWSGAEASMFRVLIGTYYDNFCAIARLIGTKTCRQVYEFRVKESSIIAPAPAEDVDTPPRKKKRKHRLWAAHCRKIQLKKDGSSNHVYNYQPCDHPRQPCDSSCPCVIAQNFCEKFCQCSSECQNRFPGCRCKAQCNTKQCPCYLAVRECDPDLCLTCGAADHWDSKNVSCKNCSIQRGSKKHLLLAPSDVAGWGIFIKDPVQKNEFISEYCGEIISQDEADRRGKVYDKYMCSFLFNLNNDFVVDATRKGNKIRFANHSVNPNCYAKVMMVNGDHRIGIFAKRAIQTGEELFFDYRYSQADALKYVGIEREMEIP
A short description of data set [13]: Clearance in Sprague-Dawley rat at 3 mg/kg, iv measured for 0.25 to 24 hrs by LC-MS/MS analysis. It is filed as ADME, organism-based. The following applies: in vivo, time 0.25-24 hrs.

The source of these data is ChEMBL document CHEMBL5154928, “Structure-Aided Design, Synthesis, and Biological Evaluation of Potent and Selective Non-Nucleoside Inhibitors Targeting Protein Arginine Methyltransferase 5” (J Med Chem, 2022).

As a reminder, the IC50 is the concentration that gives 50% inhibition. A word on the half-life: it is the time needed for the level to fall by half in the phase considered. Broadly, the bioavailability is the share of a dose that reaches the circulation, judged against a reference dose that is usually intravenous. Read a low bioavailability as poor availability. A word on the clearance: it is the volume of plasma or blood freed of the substance per unit of time. Lower therefore signals inefficient removal.

Take `C[C@H](Oc1ccc(-c2cc3c(C4=CCNCC4)ncnc3[nH]2)cc1)c1ccccc1`: the IC50 in data set [1] was > 20 µM; in data set [3] it was > 20 µM; in data set [5], > 20 µM; in [10], 0.0239 µM; in data set [12], > 20 µM. Also, the Activity entry is “Non-Toxic” in data set [2], 95.9% in the data set on A-375 [7] and 66.39% in the data set with A-375 [11]. The Vd in [4] was 62.5 L/kg. Moreover, in data set [6], the half-life was 2.58 h. Also, in data set [8], the bioavailability turned out to be 7.25%. The AUC in data set [9] was 173 h/ng/mL. This molecule also returned a clearance in data set [13] of 310 mL/min/kg.
